One compound from patent publication US7294627B2, “Chemical compounds” (Eli Lilly and Company, priority 2001, dated 2007) can be followed below.

The target in the test is T1, human factor Xa (Homo sapiens, UniProt P00742).
T1 construct: 25 μL human factor Xa (32 nM in 0.03 M tris, 0.15 M NaCl, 1 mg/mL HSA); purchased Enzyme Research Laboratories (South Bend, Ind., USA)
The test can be described thus: Enzyme inhibition assay (apparent Kass, chromogenic substrate hydrolysis). Type of test: biochemical. Particulars: apparent association constant, human factor Xa 3.2 nM, BzIleGluGlyArgpNA substrate; 1/appKass=app Ki. How it is done: Human factor Xa and human thrombin are purchased from Enzyme Research Laboratories (South Bend, Ind., USA). Other proteases are from other commercial sources. Chromogenic para-nitroanilide peptide protease substrates are purchased from Midwest Biotech (Fishers, Ind., USA).
The binding affinities for human factor Xa are measured as apparent association constants (Kass) derived from protease inhibition kinetics as described previously.^a,b,c,d The apparent Kass values are obtained using automated (BioMek-1000) dilutions of inhibitors (Kass determinations are performed in triplicate at each of four-eight inhibitor concentrations) into 96-well plates and chromogenic substrate hydrolysis rates determined at 405 nm using a Thermomax plate reader from Molecular Devices (San Francisco). […] [Free Xa] and [bound Xa] are determined from linear standard curves on the same plate by use of SoftmaxPro software for each inhibitor concentration and apparent Kass calculated for each inhibitor concentration which produced hydrolysis inhibition between 20% and 80% of the control (3.2 nM factor Xa): apparent Kass=[E:I]/[Ef][If]=[Eb]/[Ef][I^o−I^b]. […] The variability of mean apparent Kass values determined at the single substrate concentration is +/−15%. […]

SMILES strings stand for the structures.

T1 sequence (P00742 235-488 limits assumed): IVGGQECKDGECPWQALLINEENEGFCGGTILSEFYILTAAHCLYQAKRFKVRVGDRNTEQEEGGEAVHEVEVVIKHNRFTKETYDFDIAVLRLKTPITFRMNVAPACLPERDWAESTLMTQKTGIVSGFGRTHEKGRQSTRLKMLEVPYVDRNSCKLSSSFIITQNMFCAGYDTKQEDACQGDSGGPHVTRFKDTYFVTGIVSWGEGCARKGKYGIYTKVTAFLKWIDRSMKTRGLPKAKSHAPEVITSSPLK
T1 sequence (P00742 41-179 partner limits assumed): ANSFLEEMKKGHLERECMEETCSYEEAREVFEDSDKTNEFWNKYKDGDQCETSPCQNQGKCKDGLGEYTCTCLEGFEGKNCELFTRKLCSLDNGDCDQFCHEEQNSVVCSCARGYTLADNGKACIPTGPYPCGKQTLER

In the case of `COc1ccc(C(=O)NC(C(=O)N2CCC(CN(C)c3ccncc3)CC2)c2ccccc2Cl)cc1.Cl` (racemic) [Example 7], the Kass is approximately 1.22e+08 L/mol.
